Measurements from ChEMBL document CHEMBL1148303, “Design and synthesis of alpha-aryloxy-alpha-methylhydrocinnamic acids: a novel class of dual peroxisome proliferator-activated receptor alpha/gamma agonists” (J Med Chem, 2004).

Assays:
[1] = target: T1, Peroxisome proliferator-activated receptor delta (Homo sapiens, UniProt Q03181); format: cell-based, CV-1
T1 sequence (Q03181 whole entry): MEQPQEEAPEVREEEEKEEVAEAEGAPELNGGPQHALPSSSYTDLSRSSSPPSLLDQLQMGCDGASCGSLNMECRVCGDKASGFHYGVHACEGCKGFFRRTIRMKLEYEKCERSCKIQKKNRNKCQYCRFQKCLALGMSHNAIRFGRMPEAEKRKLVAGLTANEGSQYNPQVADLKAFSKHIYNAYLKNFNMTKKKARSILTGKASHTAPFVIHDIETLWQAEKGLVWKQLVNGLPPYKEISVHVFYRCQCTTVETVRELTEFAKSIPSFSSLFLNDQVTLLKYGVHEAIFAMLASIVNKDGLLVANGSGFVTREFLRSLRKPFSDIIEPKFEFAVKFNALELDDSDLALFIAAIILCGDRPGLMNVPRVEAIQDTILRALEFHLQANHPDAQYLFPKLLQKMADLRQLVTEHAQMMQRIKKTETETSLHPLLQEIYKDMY

[2] = target: T1, Peroxisome proliferator-activated receptor delta; format: functional
[3] = target: T1, Peroxisome proliferator-activated receptor delta; format: cell-based; conditions: cv-1
[4] = target: T1, Peroxisome proliferator-activated receptor delta
[5] = target: T2, Peroxisome proliferator-activated receptor alpha (Homo sapiens, UniProt Q07869); format: cell-based, CV-1
T2 sequence (Q07869 whole entry): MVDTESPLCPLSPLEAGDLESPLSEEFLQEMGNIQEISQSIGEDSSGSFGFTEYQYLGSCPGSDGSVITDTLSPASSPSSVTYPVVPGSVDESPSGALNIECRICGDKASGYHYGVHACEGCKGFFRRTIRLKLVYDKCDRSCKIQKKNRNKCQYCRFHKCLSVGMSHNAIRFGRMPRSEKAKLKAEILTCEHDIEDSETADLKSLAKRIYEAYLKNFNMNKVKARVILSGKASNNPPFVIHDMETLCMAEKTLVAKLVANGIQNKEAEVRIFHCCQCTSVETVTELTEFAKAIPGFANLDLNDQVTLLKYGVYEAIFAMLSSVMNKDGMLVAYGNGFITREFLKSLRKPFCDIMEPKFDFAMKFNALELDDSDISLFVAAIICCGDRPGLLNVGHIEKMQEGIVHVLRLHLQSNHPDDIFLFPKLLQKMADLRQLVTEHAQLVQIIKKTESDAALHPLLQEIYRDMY

[6] = target: T2, Peroxisome proliferator-activated receptor alpha; format: functional
[7] = target: T1, Peroxisome proliferator-activated receptor delta; remark: listed apart in the source

| SMILES | EC50 ([1]; cv-1) | IC50 [2] [nM] | EC50 [3] | EC50 [5] [nM] | IC50 [6] [nM] | other results |
| --- | --- | --- | --- | --- | --- | --- |
| Cc1oc(C2CCCCC2)nc1CCOc1ccc(C[C@](C)(Oc2ccccc2)C(=O)O)cc1 | Not Active | 9690 | – | – | – | – |
| Cc1oc(C2CCCCC2)nc1CCOc1ccc(CC(C)(Oc2ccccc2)C(=O)O)cc1 (stereo not given) | – | – | Not Active | – | – | IC50 [4]: Not Active |
| Cc1oc(-c2ccc(-c3ccccc3)cc2)nc1CCOc1ccc(CC(C)(Oc2ccccc2)C(=O)O)cc1 (stereo not given) | – | – | Not Active | 69 | 503 | IC50 [4]: Not Active |
| Cc1oc(-c2ccccc2)nc1CCOc1ccc(CC(Oc2ccccc2)C(=O)O)cc1 (stereo not given) | Not Active | 7040 | – | 833 | 1110 | – |
| Cc1oc(-c2cccc(-c3ccccc3)c2)nc1CCOc1ccc(CC(C)(Oc2ccccc2)C(=O)O)cc1 (stereo not given) | – | – | Not Active | 7 | 167 | IC50 [7]: Not Active |
| CCCCC(Cc1ccc(OCCc2nc(-c3ccccc3)oc2C)cc1)(Oc1ccccc1)C(=O)O (stereo not given) | Not Active | 7230 | – | 2560 | 1850 | – |

Now from value to compound, other results behind:

| EC50 ([1]; cv-1) | IC50 [2] [nM] | EC50 [3] | EC50 [5] [nM] | IC50 [6] [nM] | SMILES | other results |
| --- | --- | --- | --- | --- | --- | --- |
| – | 2680 | – | – | – | Cc1oc(-c2ccccc2)nc1CCOc1ccc(C[C@@](C)(Oc2ccccc2)C(=O)O)cc1 | EC50 ([1]; read-out: EC50): 3010 nM |
| Not Active | 5070 | – | 75 | 473 | CCC(Cc1ccc(OCCc2nc(-c3ccccc3)oc2C)cc1)(Oc1ccccc1)C(=O)O (stereo not given) | – |
| Not Active | – | – | – | – | Cc1oc(-c2cccs2)nc1CCOc1ccc(C[C@@](C)(Oc2ccccc2)C(=O)O)cc1 | – |
| Not Active | 5520 | – | – | – | Cc1oc(-c2ccccc2)nc1CCOc1ccc(C[C@](C)(Oc2ccccc2)C(=O)O)cc1 | – |
| – | 4450 | Not Active | – | – | Cc1oc(-c2ccccc2)nc1CCOc1ccc(OC(C)(Cc2ccccc2)C(=O)O)cc1 (stereo not given) | – |
| – | 7110 | Not Active | – | – | Cc1oc(-c2ccccc2)nc1CCOc1ccc(CC(C)(Oc2ccccc2)C(=O)O)cc1 (stereo not given) | – |
| – | – | Not Active | – | – | Cc1oc(-c2cccs2)nc1CCOc1ccc(CC(C)(Oc2ccccc2)C(=O)O)cc1 (stereo not given) | – |
| – | – | Not Active | – | – | Cc1oc(-c2cccs2)nc1CCOc1ccc(C[C@](C)(Oc2ccccc2)C(=O)O)cc1 [LY-510929] | – |
